Changes are numbered by the printed parent chain. “And” between values parts separate entries of the source, which are not always exact repeats. Equal entries are not always repeated. Where two headings read alike, the source gives them in different places.
Tests used:
Format in all cases: cell-based
hTA1 = target: T1, hTA1 (Homo sapiens, UniProt Q96RJ0); experiment: GloSensor cAMP accumulation assay, concentration response, wild-type hTA1 in transfected HEK293T cells; settings: for Emax: HEK-293T;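 on all read-outs here: luminescence read after 30 min compound exposure at room temperature in cells preloaded with D-Luciferin, reflecting Gs-driven cAMP rise, efficacy scaled to the maximal β-PEA response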
T1 construct: expressed in transfected cells; host or cells: HEK293T
T1 sequence (Q96RJ0 1-339): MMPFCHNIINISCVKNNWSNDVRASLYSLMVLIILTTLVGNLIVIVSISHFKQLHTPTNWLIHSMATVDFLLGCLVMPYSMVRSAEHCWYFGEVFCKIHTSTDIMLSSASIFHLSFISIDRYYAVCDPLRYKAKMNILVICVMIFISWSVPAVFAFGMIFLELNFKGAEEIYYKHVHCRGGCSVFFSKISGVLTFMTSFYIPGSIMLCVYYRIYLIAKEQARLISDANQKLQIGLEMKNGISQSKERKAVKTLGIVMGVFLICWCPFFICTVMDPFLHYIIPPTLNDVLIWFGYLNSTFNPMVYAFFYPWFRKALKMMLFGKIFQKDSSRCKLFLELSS

hTA1 C88S = target: T2, hTA1 C88S (Homo sapiens, UniProt Q96RJ0, C88S); experiment: GloSensor cAMP accumulation assay, C88S mutant; settings: C88S
T2 construct: expressed in transfected cells; host or cells: HEK293T
T2 sequence (Q96RJ0 1-339 C88S): T1 sequence (Q96RJ0 1-339) with C88S

hTA1 C88/178S = target: T3, hTA1 C88/178S (Homo sapiens, UniProt Q96RJ0, C178S/C88S); experiment: GloSensor cAMP accumulation assay, C88S/C178S double mutant; settings: for Normalized Luminescence Counts (N=2): log[Compound], single replicate values
T3 construct: expressed in transfected cells; host or cells: HEK293T
T3 sequence (Q96RJ0 1-339 C88S/C178S): T1 sequence (Q96RJ0 1-339) with C88S, C178S

hTA1 T271A = target: T4, hTA1 T271A (Homo sapiens, UniProt Q96RJ0, T271A); experiment: GloSensor cAMP accumulation assay, T271A mutant
T4 construct: expressed in transfected cells; host or cells: HEK293T
T4 sequence (Q96RJ0 1-339 T271A): T1 sequence (Q96RJ0 1-339) with T271A

[1] = C88S, C178S, each row is one independent experiment, 3 replicates

**Q.** CCc1[nH]nc(C(=O)Nc2ccc([C@H]3CNCCO3)cc2)c1C [ralmitaront] was tested. Which Emax (hTA1) did it give?
**A.** Its Emax is 40.1%.

**Q.** What about the Emax (hTA1; WT hTA1, β-PEA = 100, average of the two experiments, read-out: Emax values, Avg) of the same compound?
**A.** Its Emax is 40.1%.

**Q.** And the “Emax values, Mean” value (hTA1; WT hTA1, β-PEA = 100, each line an independent experiment, 3 replicates)?
**A.** The value was 54.4399 and 25.7884.

**Q.** What about the “Emax values, Avg” value (hTA1; WT, average of the experiments, β-PEA = 100) of the same compound?
**A.** Its value is 40.11.

**Q.** And the “Emax values, Avg” value (hTA1; WT, average of the two experiments)?
**A.** The value was 40.11.

**Q.** And the “Emax values, Mean” value (hTA1; WT, mean of each independent experiment (3 replicates), β-PEA = 100)?
**A.** The value was 54.4399 and 25.7884.

**Q.** And the “Emax values, Mean” value (hTA1; WT, single experiments (3 replicates each), β-PEA = 100)?
**A.** Its value is 54.4399 and 25.7884.

**Q.** And the Emax values (hTA1 C88S; Mean of fit per experiment)?
**A.** Its Emax values is 92.8994 and 62.9388.

**Q.** What about the Emax (hTA1 C88S; n=2, read-out: Span ± SEM (Emax normalized to β-PEA)) of the same compound?
**A.** The Emax was 77.9 ± 15%.

**Q.** What about the Emax (hTA1 C88S; relative to β-PEA, read-out: Emax) of the same compound?
**A.** The Emax was 77.9%.

**Q.** And the “ΔEmax values (each mutant value - WT average), Mean” value (hTA1 C88/178S; [1])?
**A.** Its value is 18.4827 and 32.9242.

**Q.** And the “ΔpEC50 values (each mutant value - WT average), Mean” value (hTA1 C88/178S; [1])?
**A.** Its value is -0.118 and 0.09825.

**Q.** And the “Normalized Luminescence Counts (N=2)” value (hTA1 C88/178S; C88S, C178S, M = -5)?
**A.** The value was 55.2389 and 58.8007 and 61.0622 and 66.9199 and 93.0497 and 63.144.

**Q.** And the “Normalized Luminescence Counts (N=2)” value (hTA1 C88/178S; C88S, C178S, M = -5.522)?
**A.** The value was 59.988 and 60.3272 and 50.3202 and 55.743 and 72.6594 and 83.3832.

**Q.** What about the “Normalized Luminescence Counts (N=2)” value (hTA1 C88/178S; C88S, C178S, M = -6) of the same compound?
**A.** Its value is 50.4332 and 47.6629 and 57.5569 and 67.8262 and 71.7532 and 58.9149.

**Q.** And the “Normalized Luminescence Counts (N=2)” value (hTA1 C88/178S; C88S, C178S, M = -6.522)?
**A.** Its value is 36.7513 and 35.5075 and 46.8149 and 59.519 and 56.6493 and 50.3056.

**Q.** And the “Normalized Luminescence Counts (N=2)” value (hTA1 C88/178S; C88S, C178S, M = -7)?
**A.** Its value is 22.2779 and 25.1613 and 25.3874 and 33.9934 and 41.0922 and 21.3061.

**Q.** What about the “Normalized Luminescence Counts (N=2)” value (hTA1 C88/178S; C88S, C178S, M = -7.522) of the same compound?
**A.** The value was 14.9281 and 10.2921 and 11.3663 and 21.004 and 25.2331 and 32.0299.

**Q.** And the “Normalized Luminescence Counts (N=2)” value (hTA1 C88/178S; C88S, C178S, M = -8)?
**A.** The value was 4.13 and 3.564 and 4.525 and 7.562 and 10.4313 and 11.0354.

**Q.** And the “Normalized Luminescence Counts (N=2)” value (hTA1 C88/178S; C88S, C178S, M = -8.522)?
**A.** The value was 1.1331 and 2.8292 and 0.7939 and 5.598 and 0.6137 and 2.8793.

**Q.** And the “Normalized Luminescence Counts (N=2)” value (hTA1 C88/178S; C88S, C178S, M = -9)?
**A.** Its value is 0.3981 and 0.4547 and 0.9635 and -0.2925 and -0.1415 and 0.7648.

**Q.** What about the “Normalized Luminescence Counts (N=2)” value (hTA1 C88/178S; C88S, C178S, M = -9.522) of the same compound?
**A.** The value was -0.2803 and 1.19 and 0.172 and -1.501 and -1.35 and -2.105.

**Q.** What about the “Normalized Luminescence Counts (N=2)” value (hTA1 C88/178S; C88S, C178S, M = -10) of the same compound?
**A.** The value was 0.0589 and 1.359 and 0.002362 and -0.8967 and -0.2925 and -1.35.

**Q.** What about the “Normalized Luminescence Counts (N=2)” value (hTA1 C88/178S; C88S, C178S, M = -10.522) of the same compound?
**A.** The value was 1.077 and 0.1154 and 0.002362 and -1.501 and -1.199 and -1.048.

**Q.** What about the “Normalized Luminescence Counts (N=2)” value (hTA1 C88/178S; C88S, C178S, M = -11) of the same compound?
**A.** The value was -0.2238 and 0.172 and 0.7373 and -1.35 and -0.1415 and -1.048.

**Q.** What about the “Normalized Luminescence Counts (N=2)” value (hTA1 C88/178S; C88S, C178S, M = -11.522) of the same compound?
**A.** Its value is 0.0589 and 0.7373 and 0.5112 and -2.105 and 0.7648 and -0.8967.

**Q.** What about the “Normalized Luminescence Counts (N=2)” value (hTA1 C88/178S; C88S, C178S, M = -12) of the same compound?
**A.** The value was 0.5112 and 0.7939 and 5.317 and -0.4436 and -0.5946 and -1.048.

**Q.** What about the “Normalized Luminescence Counts (N=2)” value (hTA1 C88/178S; C88S, C178S, M = -12.522) of the same compound?
**A.** Its value is 0.7373 (2×) and 1.416 and -1.199 and -0.7456 and -2.105.

**Q.** What about the “Emax values, Mean” value (hTA1 C88/178S; C88S, C178S, normalized (β-PEA = 100), each row is one independent experiment, 3 replicates) of the same compound?
**A.** Its value is 58.5968 and 73.0383.

**Q.** And the Emax (hTA1 C88/178S; read-out: Span ± SEM (Emax normalized to β-PEA))?
**A.** Its Emax is 65.8 ± 7.22%.

**Q.** And the “ΔpEC50 values (each mutant value - WT average), Mean” value (hTA1 T271A; T271A mutant minus WT average, Figure 5B)?
**A.** The value was -0.01384.

**Q.** And the “Emax values, Mean” value (hTA1 T271A; T271A mutant, Figure 5B, β-PEA = 100, each row one independent experiment (3 replicates))?
**A.** The value was 56.995.

**Q.** And the Emax (hTA1 T271A; T271A mutant, Figure 5B, β-PEA = 100, each row one independent experiment (3 replicates), read-out: Emax values, Mean)?
**A.** The Emax was 65.2%.

**Q.** And the Emax (hTA1 T271A; T271A, n=2, read-out: Span ± SEM (Emax normalized to β-PEA))?
**A.** The Emax was 61.1 ± 4.08%.

Source: publication PMC10762035, “Molecular basis of human trace amine-associated receptor 1 activation” (Nature Communications, 2024)
